Data taken from patent US8822503B2, “2-pyridone compounds” (Taisho Pharmaceutical Co., Ltd, priority 2009, dated 2014).

Biological target: T1, human liver GK (Homo sapiens, UniProt P35557)
T1 construct: GST (glutathione S-transferase) (N); made in house; host or cells: E. coli
T1 sequence (P35557 1-466 isoform P35557-2): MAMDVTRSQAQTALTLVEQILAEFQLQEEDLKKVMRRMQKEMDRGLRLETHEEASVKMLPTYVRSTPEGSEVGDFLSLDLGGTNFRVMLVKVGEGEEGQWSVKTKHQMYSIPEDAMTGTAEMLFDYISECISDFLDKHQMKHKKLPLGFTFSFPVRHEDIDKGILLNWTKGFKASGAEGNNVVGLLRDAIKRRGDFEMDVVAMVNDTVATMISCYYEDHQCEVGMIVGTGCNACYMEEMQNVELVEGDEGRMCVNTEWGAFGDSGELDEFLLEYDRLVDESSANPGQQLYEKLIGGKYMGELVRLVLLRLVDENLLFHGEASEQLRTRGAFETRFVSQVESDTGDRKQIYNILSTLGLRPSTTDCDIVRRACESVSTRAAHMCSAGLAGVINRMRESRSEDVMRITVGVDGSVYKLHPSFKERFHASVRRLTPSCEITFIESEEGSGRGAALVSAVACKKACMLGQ
Assay: GK activation test
Assay type: biochemical
Conditions: test compound concentration needed to activate 50% of maximum activation ability; 4 mM 14C-labeled glucose, 2 mM ATP, room temperature, 20 minutes
Description: The GK activation test for the test compounds was performed by the method of Irwin A. Rose et al. (J. Biol. Chem. 1964 January; 239:12-7) with partial modifications.
The enzyme source used in this assay, human liver GK, was expressed in E. coli as a fusion protein with GST (glutathione S-transferase) added to the amino terminus and was purified using Glutathione Sepharose 4B (Amersham Biosciences).
The test was carried out using flat-bottom 96-well plates (Sumitomo Bakelite Co., Ltd.). A solution of the test compound in dimethyl sulfoxide (DMSO) and DMSO as a control were added to each well of the plates at a final DMSO concentration of 1%. 25 mM Hepes-KOH (pH=7.1), 25 mM KCl, 2 mM MgCl2, 2 mM ATP, 4 mM ^14C-labeled glucose (Muromachi Yakuhin) and 1 mM DTT (dithiothreitol) were further added at the indicated final concentrations, respectively. Finally, human liver GK was added at 0.24 microgram per well and the reaction was started. The reaction was carried out at room temperature.
After 20 minutes, AG1-X4 resin (BioRad) suspended in 25 mM Hepes-KOH (pH=7.1) was added and the reaction product, labeled glucose 6-phosphate, was allowed to bind thereto. The whole volume was transferred to MultiScreen plates (Millipore) and the resin was washed with water. Thereafter, the labeled glucose 6-phosphate binding to the resin was eluted with a 0.5 M NaCl solution. The labeling activity of the eluted labeled glucose 6-phosphate was measured as an index of GK activity.
The GK activity maximally activated by the test compound was described as maximum activation ability, and the test compound concentration needed to activate 50% of that ability was described as EC50.

| EC50 [µM] | Compound |
| --- | --- |
| 0.5 to 3 | CSc1ccc([C@]2(c3ccc(C)c(=O)[nH]3)C[C@@H]2C2CCCC2)cc1Cl (relative stereo) [Example 3-1, trans-6-{-1-[3-Chloro-4-(methylsulfanyl)phenyl]-2-cyclopentylcyclopropyl}-3-methylpyridin-2(1H)-one] |
| 0.5 to 3 | Cc1ccc([C@@]2(c3ccc(S(C)(=O)=O)c(Cl)c3)C[C@@H]2C2CCCC2)[nH]c1=O (relative stereo) [Example 3-2, trans-6-{1-[3-Chloro-4-(methylsulfonyl)phenyl]-2-cyclopentylcyclopropyl}-3-methylpyridin-2(1H)-one] |
| 0.5 to 3 | CSc1ccc([C@]2(c3ccc(C)c(=O)[nH]3)C[C@@H]2C2CCCC2)cc1 (relative stereo) [Example 3-3, trans-6-{2-Cyclopentyl-1-[4-(methylsulfanyl)phenyl]cyclopropyl}-3-methylpyridin-2(1H)-one] |
| 3 to 10 | Cc1ccc([C@@]2(c3ccc(S(C)(=O)=O)cc3)C[C@@H]2C2CCCC2)[nH]c1=O (relative stereo) [Example 3-4, trans-6-{2-Cyclopentyl-1-[4-(methylsulfonyl)phenyl]cyclopropyl}-3-methylpyridin-2(1H)-one] |
| 3 to 10 | CC(C)(C)c1ccc(C(C[C@H]2CCC(=O)N2)c2ccc(Cl)c(=O)[nH]2)cc1 (single isomer, unassigned) [Example 4-69] |
| 0.5 to 3 | CC(C)(C)c1ccc(C(C[C@H]2CCC(=O)N2)c2ccc(Cl)c(=O)[nH]2)cc1 (single isomer, unassigned) [Example 4-70] |
| 3 to 10 | CC(C)(C)c1ccc(C(C[C@@H]2CCC(=O)N2)c2ccc(Cl)c(=O)[nH]2)cc1 (single isomer, unassigned) [Example 4-76] |
| 3 to 10 | CC(C)(C)c1ccc(C(C[C@@H]2CCC(=O)N2)c2ccc(Cl)c(=O)[nH]2)cc1 (single isomer, unassigned) [Example 4-77] |
| 0.5 to 3 | CC(C)c1ccc(C(C[C@H]2CCC(=O)N2)c2ccc(Cl)c(=O)[nH]2)cc1 (single isomer, unassigned) [Example 4-85] |
| 0.01 to 0.5 | CC(C)c1ccc(C(C[C@H]2CCC(=O)N2)c2ccc(Cl)c(=O)[nH]2)cc1Cl (single isomer, unassigned) [Example 4-86] |
| 0.01 to 0.5 | CCOc1ccc(C(C[C@H]2CCC(=O)N2)c2ccc(C3CC3)c(=O)[nH]2)cc1Cl (single isomer, unassigned) [Example 4-87] |
| 0.01 to 0.5 | CC(C)(C)c1ccc(C(C[C@H]2CCN(C(=O)C3CC3)C2)c2ccc(Cl)c(=O)[nH]2)cc1 (single isomer, unassigned) [Example 4-96] |
| 3 to 10 | CC(C)(C)c1ccc(C(C[C@H]2CCN(C(=O)C3CC3)C2)c2ccc(Cl)c(=O)[nH]2)cc1 (single isomer, unassigned) [Example 4-97] |
| 0.5 to 3 | O=C1CC[C@H](CC(c2ccc3c(c2)CCO3)c2ccc(C3CC3)c(=O)[nH]2)N1 (single isomer, unassigned) [Example 4-209] |
| 0.5 to 3 | O=C1CC[C@H](CC(c2ccc(F)c(Cl)c2)c2ccc(C3CC3)c(=O)[nH]2)N1 (single isomer, unassigned) [Example 4-211] |
| 0.5 to 3 | Cc1cc(C(C[C@H]2CCC(=O)N2)c2ccc(C3CC3)c(=O)[nH]2)ccc1Cl (single isomer, unassigned) [Example 4-213] |
| 3 to 10 | Cc1cc(C(C[C@H]2CCC(=O)N2)c2ccc(C3CC3)c(=O)[nH]2)ccc1Cl (single isomer, unassigned) [Example 4-214] |
| 0.01 to 0.5 | Cc1ccc(C(C[C@H]2CCC(=O)N2)c2ccc(C3CC3)c(=O)[nH]2)cc1Cl (single isomer, unassigned) [Example 4-215] |
| 3 to 10 | Cc1ccc(C(C[C@H]2CCC(=O)N2)c2ccc(C3CC3)c(=O)[nH]2)cc1Cl (single isomer, unassigned) [Example 4-216] |
| 0.5 to 3 | O=C1CC[C@H](CC(c2ccc(Cl)c(F)c2)c2ccc(C3CC3)c(=O)[nH]2)N1 (single isomer, unassigned) [Example 4-217] |
